In BindingDB's records for patent US10781211 (LUNDBECK LA JOLLA RESEARCH CENTER, INC., 2020) one finds IC50 data, which are given here for 22 molecules.

Where only a bound is given, the exact number is not on record here.

This test deals with T1, Monoglyceride lipase (Homo sapiens, UniProt Q99685).
T1 sequence (Q99685 whole entry): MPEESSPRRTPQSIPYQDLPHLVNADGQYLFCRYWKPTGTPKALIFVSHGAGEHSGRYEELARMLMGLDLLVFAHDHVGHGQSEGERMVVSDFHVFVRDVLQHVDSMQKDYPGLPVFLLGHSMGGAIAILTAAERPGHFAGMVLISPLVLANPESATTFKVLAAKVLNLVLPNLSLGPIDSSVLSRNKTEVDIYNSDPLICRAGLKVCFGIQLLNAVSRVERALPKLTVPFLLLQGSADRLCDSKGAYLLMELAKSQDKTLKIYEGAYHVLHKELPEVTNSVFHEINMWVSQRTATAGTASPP
Briefly: In Vitro Competitive Activity-Based Protein Profiling Assay. On the procedure: Human: Proteomes (human prefrontal cortex or cell membrane fractions) (50 μL, 1.0-2.0 mg/mL total protein concentration) were preincubated with varying concentrations of inhibitors at 37° C. After 30 min, FP-Rh or JW912 (1.0 μL, 50 μM in DMSO) was added and the mixture was incubated for another 30 min at room temperature. Reactions were quenched with SDS loading buffer (15 μL-4X) and run on SDS-PAGE.
Molecule `O=C(OC(C(F)(F)F)C(F)(F)F)N1CCC2(CCN(Cc3cc(CN4CCCCC4)cc(C(F)(F)F)c3)C2)CC1` [US10781211, Example 245] came in with an IC50 of under 100 nM.
To `O=C(OC(C(F)(F)F)C(F)(F)F)N1CCC2(CCN(Cc3ccc(N4CCCCC4)c(C(F)(F)F)c3)C2)CC1` [US10781211, Example 228] belongs under 100 nM.
`CC1CCCN(c2cc(CN3CCCC34CCN(C(=O)OC(C(F)(F)F)C(F)(F)F)CC4)cc(C(F)(F)F)c2)C1` (configuration not stated) [US10781211, Example 221] returned an IC50 of under 100 nM.
To `CC1CCN(c2cc(C(F)(F)F)ccc2CN2CCC3(CCN(C(=O)OC(C(F)(F)F)C(F)(F)F)CC3)C2)C1` (configuration not stated) [US10781211, Example 219] belongs under 100 nM; to `O=C(OC(C(F)(F)F)C(F)(F)F)N1CCC2(CCCN2Cc2cc(CN3CCCCC3)cc(C(F)(F)F)c2)CC1` [US10781211, Example 244], under 100 nM.
With `O=C(OC(C(F)(F)F)C(F)(F)F)N1CCC2(CCN(Cc3ccc(S(F)(F)(F)(F)F)cc3N3CCCCC3)C2)CC1` [US10781211, Example 241], the IC50 is under 100 nM.
To `CC1CCN(c2cc(CN3CCC4(CCN(C(=O)OC(C(F)(F)F)C(F)(F)F)CC4)C3)cc(C(F)(F)F)c2)C1` (configuration not stated) [US10781211, Example 229] belongs under 100 nM; to `O=C(OC(C(F)(F)F)C(F)(F)F)N1CCC2(CCCN2Cc2cc(F)cc(N3CCCCC3)c2)CC1` [US10781211, Example 236], under 100 nM; to `O=C(OC(C(F)(F)F)C(F)(F)F)N1CCC2(CCN(Cc3ccc(C(F)(F)F)cc3N3CCCC3)C2)CC1` [US10781211, Example 201], under 100 nM.
`O=C(OC(C(F)(F)F)C(F)(F)F)N1CCC2(CCCN2Cc2cc(N3CCCC3)cc(C(F)(F)F)c2)CC1` [US10781211, Example 203] registered an IC50 of under 100 nM.
`O=C(OC(C(F)(F)F)C(F)(F)F)N1CCC2(CCN(Cc3cc(N4CCOCC4)cc(C(F)(F)F)c3)C2)CC1` [US10781211, Example 277] registered an IC50 of under 100 nM.
Under `O=C(OC(C(F)(F)F)C(F)(F)F)N1CCC2(CCN(Cc3cc(N4CCCC4)cc(C(F)(F)F)c3)C2)CC1` [US10781211, Example 202] stands under 100 nM; under `CC1CCCN(c2cc(C(F)(F)F)ccc2CN2CCC3(CCN(C(=O)OC(C(F)(F)F)C(F)(F)F)CC3)C2)C1` (configuration not stated) [US10781211, Example 216], under 100 nM; under `O=C(OC(C(F)(F)F)C(F)(F)F)N1CCC2(CCCN2Cc2cc(CN3CCCCC3)cc(OC(F)(F)F)c2)CC1` [US10781211, Example 269], under 100 nM.
For the molecule `O=C(OC(C(F)(F)F)C(F)(F)F)N1CCC2(CCN(Cc3cc(Cl)cc(N4CCCCC4)c3)C2)CC1` [US10781211, Example 232], the IC50 was under 100 nM.
To `O=C(OC(C(F)(F)F)C(F)(F)F)N1CCC2(CCCN2Cc2cc(N3CCCCC3)cc(S(F)(F)(F)(F)F)c2)CC1` [US10781211, Example 263] belongs under 100 nM; to `O=C(OC(C(F)(F)F)C(F)(F)F)N1CCC2(CCCN2Cc2cc(N3CCOCC3)cc(C(F)(F)F)c2)CC1` [US10781211, Example 204], under 100 nM; to `O=C(OC(C(F)(F)F)C(F)(F)F)N1CCC2(CCCN2Cc2cc(CN3CCCC3)cc(OC(F)(F)F)c2)CC1` [US10781211, Example 270], under 100 nM.
To `CC1CN(c2cc(CN3CCC4(CCN(C(=O)OC(C(F)(F)F)C(F)(F)F)CC4)C3)cc(C(F)(F)F)c2)CCO1` (configuration not stated) [US10781211, Example 252] belongs under 100 nM; to `O=C(OC(C(F)(F)F)C(F)(F)F)N1CCC2(CCN(Cc3cc(F)cc(N4CCCCC4)c3)C2)CC1` [US10781211, Example 233], under 100 nM.
Under `O=C(OC(C(F)(F)F)C(F)(F)F)N1CCC2(CCN(Cc3ccc(C(F)(F)F)c(N4CCCCC4)c3)C2)CC1` [US10781211, Example 234] stands under 100 nM; under `O=C(OC(C(F)(F)F)C(F)(F)F)N1CCC2(CCCN2Cc2ccc(C(F)(F)F)cc2CN2CCCC2)CC1` [US10781211, Example 262], under 100 nM.
